The text below walks through data of ChEMBL document CHEMBL5236548, “Marine Natural Products: A Potential Source of Anti-hepatocellular Carcinoma Drugs” (J Med Chem, 2021).

For data set [1], the system named is Bel-7402. Kind of data set: Growth inhibition of human Bel-7402 cells. It counts as functional, cell-based.
For data set [2], the system named is HepG2. Briefly: Cytotoxicity against human HepG2 cells incubated for 48 hrs by MTT assay. It counts as functional, cell-based. The settings on record: HepG2, 48 h.
Data set [3] has as its system HepG2. Briefly: Cytotoxicity against human HepG2 cells measured after 3 days by MTT assay. Conditions: HepG2, 72 h. It counts as functional, cell-based.
Data set [4] can be described thus: Cytotoxicity against human HepG3 cells measured after 3 days by MTT assay. The format is functional, cell-based. The settings on record: HepG3, 72 h.
Data set [5] relates to HepG2. Kind of data set: Antimigratory activity against human HepG2 cells assessed as reduction in cell migration by cell migration assay. It counts as functional, cell-based.
The test system of data set [6] is HepG2. Kind of data set: Anticancer activity against human HepG2 cells by MTT assay. It counts as functional, cell-based. On the technique in general: Tetrazolium dyes change colour on reduction, which living cells bring about.
For data set [7], the system named is SMMC-7721. Briefly: Cytotoxicity against human SMMC-7721 cells incubated for 72 hrs by SRB assay. The format is functional, cell-based. The settings on record: SMMC-7721, 72 h.
The test system of data set [8] is Bel-7402. Briefly: Cytotoxicity against human Bel-7402 cells incubated for 72 hrs by SRB assay. The format is functional, cell-based. Conditions: Bel-7402, 72 h. In general terms: In SRB staining, fixed cells bind dye roughly in proportion to their protein.
The test system of data set [9] is H22. Briefly: Antitumor activity against […] cells xenografted in mouse assessed as reduction in tumor volume at 5 mg/kg, ip measured after 21 days by caliper method relative to control. The format is functional. More on the design: scale not given: the % may be the effect or the level left. Conditions: time 21 day. In general terms: A xenograft is tissue or cells of one species grown in another, often human tumour cells in immunodeficient mice.

Data set [10] concerns H22. Briefly: Antitumor activity against […] cells xenografted in mouse assessed as reduction in tumor volume at 15 mg/kg, ip measured after 21 days by caliper method relative to control. Details: scale not given: the % may be the effect or the level left. Conditions: time 21 day. It counts as functional.
Data set [11] deals with H22. Kind of data set: Antitumor activity against […] cells xenografted in mouse assessed as reduction in tumor volume at 45 mg/kg, ip measured after 21 days by caliper method relative to control. It counts as functional. More on the design: scale not given: the % may be the effect or the level left. The settings on record: time 21 day.
Data set [12] deals with Bel-7402. Kind of data set: Antitumor activity against human Bel-7402 cells xenografted in mouse assessed as reduction in tumor volume at 7 mg/kg, ip administered daily for 21 days by caliper method relative to control. It counts as functional. More on the design: scale not given: the % may be the effect or the level left. The settings on record: time 21 day.
In data set [13] the test system is Bel-7402. Kind of data set: Antitumor activity against human Bel-7402 cells xenografted in mouse assessed as reduction in tumor volume at 14 mg/kg, ip administered daily for 21 days by caliper method relative to control. The format is functional. Details: scale not given: the % may be the effect or the level left. The settings on record: time 21 day.
The subject of data set [14] is Bel-7402. Briefly: Antitumor activity against human Bel-7402 cells xenografted in mouse assessed as reduction in tumor volume at 28 mg/kg, ip administered daily for 21 days by caliper method relative to control. It counts as functional. More on the design: scale not given: the % may be the effect or the level left. Conditions: time 21 day.
The nature of data set [15]: Half life in Kunming mouse at 15 to 30 mg/kg measured upto 240 mins. The settings on record: in vivo, dose 15-30 mg/kg. It counts as ADME, organism-based.
For data set [16], the system named is HepG2. Briefly: Antiproliferative activity against doxorubicin sensitive human HepG2 cells assessed as decrease in cell proliferation at 50 uM incubated for 24 hrs by MTT assay relative to control. It counts as functional. Details: scale not given: the % may be the effect or the level left.
Data set [17] has as its system HepG2. Briefly: Antiproliferative activity against doxorubicin resistant human HepG2 cells at 50 uM incubated for 24 hrs by MTT assay relative to control. The format is functional.
The subject of data set [18] is HepG2. Briefly: Antiproliferative activity against human HepG2 cells incubated for 72 hrs. The format is functional, cell-based. Conditions: HepG2, 72 h.
The test system of data set [19] is SK-HEP1. Kind of data set: Antiproliferative activity against human SK-HEP1 cells assessed as cell growth inhibition by SRB method. It counts as functional.
Data set [20] relates to HepG2. Kind of data set: Antiproliferative activity against human HepG2 cells assessed as cell growth inhibition by SRB method. It counts as functional.
The subject of data set [21] is SMMC-7721. Kind of data set: Antiproliferative activity against human SMMC-7721 cells measured after 48 hrs. It counts as functional, cell-based. The settings on record: SMMC-7721, 48 h.
Data set [22] relates to SMMC-7721. Briefly: Antitumor activity against human SMMC-7721 cells xenografted in mouse assessed as reduction in tumor volume at 20 mg/kg administered once every two days for 21 days relative to control. It counts as functional. More on the design: scale not given: the % may be the effect or the level left. Conditions: time 21 day.
The subject of data set [23] is Hep 3B2. Kind of data set: Cytotoxicity against human Hep3B cells. The format is functional, cell-based.
The subject of data set [24] is Huh-7. Briefly: Cytotoxicity against human Huh-7 cells. It counts as functional, cell-based.

On to `Oc1cc(Br)c(Cc2cc(O)c(O)cc2Br)cc1O`, for which inhibition in data set [1] was half-maximal at 15.9 µM (IC50).
Turning to `CCCCSC1=C(SCCCC)C(=O)c2c(O)c3c(c(O)c2C1=O)C[C@@H](O)[C@@](C)(O)C3`, the IC50 (in general, the concentration needed to halve the response being measured) in [2] came out at 5.04 µM.
As to `C=C(CC[C@@H](C)[C@H]1[C@@H](O)C[C@H]2[C@@H]3CC=C4C[C@@H](O[C@@H]5O[C@@H](C)[C@@H](OC(C)=O)[C@@H](O)[C@@H]5O)CC[C@]4(C)[C@H]3[C@H](O)C[C@]12C)C(C)C`, the IC50 in [3] was found to be 17.6 µM; in data set [4] it was 18.9 µM.
With `CC[C@H]1C=CCC[C@@]2(C[C@@H]3CC[C@]4(O)[C@H](C(=O)OCCCCCCCCCCCCCCCC(=O)N(CCCN)C[C@@H](O)CCN)[C@]5(CCC[C@@H](C)O5)NC(=N2)N34)O1`, the IC50 in data set [5] was 0.18 µM.
The compound `CCCCCC1=C/C(=C\c2[nH]c(-c3ccc[nH]3)cc2OC)N=C1C` registered an IC50 in data set [6] of 0.04 µM.
As for `Cc1cc(O)cc(O)c1OC1C(=O)Oc2c(C)cc(O)c3c2C1c1cc(O)cc(O)c1C3=O` (stereo not given), the IC50 was below 4 µM in [7] and below 6 µM in data set [8]. In addition, the Activity is given as 55% in data set [9]; 62% in [10]; 66% in [11]; 48.8% in data set [12]; 51.2% in data set [13]; 59.9% in data set [14]. Further, the half-life – broadly, the time needed for the level to fall by half in the phase considered – in data set [15] turned out to be 40 min.
As to `COc1cccc2c1C(=O)c1c(O)c3c(c(O)c1C2=O)C[C@@](O)(C(=O)CO)C[C@@H]3O[C@H]1C[C@H](N)[C@@H](O)[C@H](C)O1` [EPIRUBICIN], the IC50 in data set [2] was 0.96 µM.
`C[C@]1(O)Cc2c(O)c3c(c(O)c2C[C@H]1O)C(=O)C=C(NCc1ccc(F)cc1)C3=O` gave an IC50 in data set [2] of 11.2 µM.
Consider `C/C=C1/C(=C\c2[nH]c(/C=C3N=C(/C=C4/NC(=O)C(CC)=C4C)C(C)=C/3CCC(=O)O)c(CCC(=O)O)c2C)NC(=O)C1C` (stereo not given), for which the Activity in data set [16] was 40%; in data set [17], 50%.
As to `C=C(CC[C@@H](C)[C@H]1[C@@H](O)C[C@H]2[C@@H]3CC=C4C[C@@H](O)CC[C@]4(C)[C@H]3[C@H](O)C[C@]12C)C(C)C`, inhibition in [3] was half-maximal at 14.9 µM (IC50).
Regarding `CC[C@H]1C=CCC[C@@]2(C[C@@H]3CCC4[C@H](C(=O)OCCCCCCCCCCCCCCCC(=O)N(CCCN)C[C@@H](O)CCN)[C@]5(CCC[C@@H](C)O5)NC(=N2)N43)O1` (stereo not given in full), half-maximal inhibition in data set [18] (IC50) was put at 2.66 µM.
As for `COC1=CC[C@@H]([C@@H](C)/C=C(C)/C=C\C=C/C(=O)N[C@H](C(=O)N/C=C\C[C@H](C/C=C(\C)Cl)OC(N)=O)C(C)(C)C)OC1=O`, the GI50 – broadly, the concentration at which growth is held to half of that of the control – in data set [19] stood at 0.000278 µM; in data set [20] it was 0.000752 µM.
`C#CCNC1=CC(=O)c2c(O)c3c(c(O)c2C1=O)C[C@](C)(O)[C@H](O)C3` showed an IC50 in [2] of 10.1 µM.
Take `C[C@@]12C[C@@H](O)C[C@]3(C)C4=CC(=O)OCC4=C[C@@H](OC1=O)C23` (stereo not given in full): 19 µM corresponded to half-maximal inhibition in data set [21] (IC50). Also, the Activity in data set [22] is recorded as 86.4%.
Turning to `CC[C@]1(O)C[C@@H]2CN(CCc3c([nH]c4ccccc34)[C@@](C(=O)OC)(c3cc4c(cc3OC)N(C)[C@H]3[C@@](O)(C(=O)OC)[C@H](OC(C)=O)[C@]5(CC)C=CCN6CC[C@]43[C@@H]65)C2)C1` [VINBLASTINE], the GI50 in [19] came out at 0.0378 µM.
Take `COc1cc(O)c2c(c1O)C(=O)C1=C(C2=O)C(O)C(O)C(C)(O)C1` (stereo not given): the IC50 stood at 3.2 µM in data set [23] and 9.6 µM in data set [24].
With `C[C@]1(O)Cc2c(O)c3c(c(O)c2C[C@H]1O)C(=O)C1=C(SCCS1)C3=O`, inhibition in data set [2] was half-maximal at 1.98 µM (IC50).
